Experimental data reported in patent publication US6203822A, “Gallium-containing compounds for the treatment of infections caused by intracellular pathogens and pathogens causing chronic pulmonary infection” (priority 1996, dated 2001).

Test system: MDR-TB patient isolate (resistant to isoniazid and rifampin)
Assay type: cell-based, M. tuberculosis
Details: gallium about 0 to about 500 μM

Q: Which “activity against MDR M. tuberculosis strain” value does the source give for O=[N+]([O-])[O-].O=[N+]([O-])[O-].O=[N+]([O-])[O-].[Ga+3] [gallium nitrate] here?
A: retained full activity
